These results are taken from ChEMBL document CHEMBL5500342, “Rational molecular design converting fascaplysin derivatives to potent broad-spectrum inhibitors against bacterial pathogens via targeting FtsZ” (Eur J Med Chem, 2024).

A word on the MBC: it is the lowest tested concentration that kills the bacteria rather than only halting them. The term MIC denotes the least concentration at which growth counts as inhibited.

For series [1], the system named is Bacillus subtilis. Briefly: Induction of morphological changes in Bacillus subtilis BNCC336690 assessed as cell elongation by measuring cell length at 0.5 times of MIC incubated for 4 hrs by optical microscopic analysis. Type of series: functional.
Series [2] has as its system Cell membrane. As to the kind of experiment: Disruption of cell membrane integrity in penicillin-susceptible Escherichia coli ATCC25922 assessed as cell deformation at 4 times of MIC incubated for 2 hrs by transmission electron microscopic analysis. Type of series: cell membranes.
Series [3] deals with Staphylococcus aureus. As to the kind of experiment: Antibacterial activity against methicillin-resistant Staphylococcus aureus ATCC43300 assessed as reduction in bacterial count at 2 times of MIC incubated for 24 hrs by time kill kinetics assay. Format: functional, organism-based.
The next series concerns Erythrocyte. As to the kind of experiment: Hemolytic activity in human erythrocytes at 0.195 to 25 microg/ml incubated for 1 hrs by absorbance based assay. Format: toxicity, cell-based. The note with it: dose 0.195-25 µg/ml.
Series [4] deals with T1, Cell division protein FtsZ (Staphylococcus aureus) (UniProt P0A031).
T1 sequence (whole entry): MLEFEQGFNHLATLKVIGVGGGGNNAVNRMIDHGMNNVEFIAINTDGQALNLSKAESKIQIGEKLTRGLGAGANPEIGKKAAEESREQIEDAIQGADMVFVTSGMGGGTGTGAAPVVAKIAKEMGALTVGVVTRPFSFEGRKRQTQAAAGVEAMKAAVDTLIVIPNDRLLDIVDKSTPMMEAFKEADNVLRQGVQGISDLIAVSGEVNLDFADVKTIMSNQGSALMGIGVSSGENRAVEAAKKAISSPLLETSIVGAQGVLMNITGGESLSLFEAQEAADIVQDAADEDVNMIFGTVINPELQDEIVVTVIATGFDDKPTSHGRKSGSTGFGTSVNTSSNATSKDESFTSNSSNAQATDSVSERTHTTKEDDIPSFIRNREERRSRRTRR
As to the kind of experiment: Induction of recombinant FtsZ polymerization in methicillin-resistant Staphylococcus aureus ATCC43300 assessed as bundling of FtsZ protofilaments by measuring fold increase in maximal intensity at 4 microg/ml measured after 10 mins by light scattering assay. The conditions noted are these: filed as activator, dose 4.0 µg/ml.

In series [5] the test system is Staphylococcus aureus. Briefly: Selectivity ratio of MBC for bactericidal activity against methicillin-resistant Staphylococcus aureus ATCC43300 to MIC for antibacterial activity against methicillin-resistant Staphylococcus aureus ATCC43300. Format: functional.
Series [6] deals with Staphylococcus aureus. As to the kind of experiment: Bactericidal activity against methicillin-resistant Staphylococcus aureus ATCC43300 incubated for 24 hrs by CLSI protocol based microbroth dilution method. Format: functional. In general terms: In broth dilution the organism is exposed to a series of concentrations in liquid medium.
Series [7] relates to Escherichia coli. Briefly: Antibacterial activity against penicillin-susceptible Escherichia coli ATCC25922 assessed as inhibition of bacterial growth incubated for 18 hrs by CLSI protocol based microbroth dilution method. Type of series: functional.
The test system of a further series is Streptococcus pneumoniae. As to the kind of experiment: Antibacterial activity against Streptococcus pneumoniae ATCC49619 assessed as inhibition of bacterial growth incubated for 18 hrs by CLSI protocol based microbroth dilution method. Format: functional.
Series [8] concerns Bacillus subtilis. Briefly: Antibacterial activity against Bacillus subtilis BNCC336690 assessed as inhibition of bacterial growth incubated for 18 hrs by CLSI protocol based microbroth dilution method. Format: functional.
Series [9] addresses T1, Cell division protein FtsZ (Staphylococcus aureus). As to the kind of experiment: Induction of FtsZ polymerization in methicillin-resistant Staphylococcus aureus ATCC43300 assessed as increase in thickness of assembly at 4 microg/ml preincubated for 10 mins followed by GTP addition and measured after 15 mins by transmission electron microscopic analysis. The note with it: filed as activator, dose 4.0 µg/ml, time 25.0 min.

Series [10] relates to Cell membrane. Briefly: Disruption of cell membrane integrity in methicillin-resistant Staphylococcus aureus ATCC43300 assessed as ghost cell formation at 4 times of MIC incubated for 2 hrs by transmission electron microscopic analysis. Format: cell membranes.
The target of series [11] is T2, Cell division protein FtsZ (Escherichia coli K-12) (UniProt P0A9A6).
T2 sequence (whole entry): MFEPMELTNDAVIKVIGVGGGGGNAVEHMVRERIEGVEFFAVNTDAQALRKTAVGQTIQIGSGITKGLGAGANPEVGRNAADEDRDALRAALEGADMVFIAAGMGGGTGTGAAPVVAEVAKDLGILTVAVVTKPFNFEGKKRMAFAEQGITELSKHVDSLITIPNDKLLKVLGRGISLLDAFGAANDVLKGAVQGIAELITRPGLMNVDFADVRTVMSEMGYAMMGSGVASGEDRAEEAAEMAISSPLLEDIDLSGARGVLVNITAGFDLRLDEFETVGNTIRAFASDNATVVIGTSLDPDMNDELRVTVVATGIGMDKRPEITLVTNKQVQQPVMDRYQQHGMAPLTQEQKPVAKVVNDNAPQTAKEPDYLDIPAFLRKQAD
As to the kind of experiment: Induction of FtsZ polymerization in penicillin-susceptible Escherichia coli ATCC25922 assessed as bundling of FtsZ protofilaments at 4 microg/ml preincubated for 10 mins followed by GTP addition and measured after 15 mins by transmission electron microscopic analysis. The conditions noted are these: filed as activator, dose 4.0 µg/ml, time 25.0 min.

The target in series [12] is T1, Cell division protein FtsZ (Staphylococcus aureus). As to the kind of experiment: Induction of FtsZ polymerization in methicillin-resistant Staphylococcus aureus ATCC43300 assessed as bundling of FtsZ protofilaments at 4 microg/ml preincubated for 10 mins followed by GTP addition and measured after 15 mins by transmission electron microscopic analysis. The note with it: filed as activator, dose 4.0 µg/ml, time 25.0 min.

Series [13] deals with Cell membrane. Briefly: Disruption of cell membrane integrity in methicillin-resistant Staphylococcus aureus ATCC43300 assessed as appearance of sunken fine microstructures at 4 times of MIC incubated for 2 hrs by scanning electron microscopic analysis. Format: cell membranes.
The next series relates to Pseudomonas aeruginosa. As to the kind of experiment: Antibacterial activity against Pseudomonas aeruginosa BNCC337940 assessed as inhibition of bacterial growth incubated for 18 hrs by CLSI protocol based microbroth dilution method. Format: functional.
For series [14], the system named is Staphylococcus aureus. Briefly: Induction of morphological changes in methicillin-resistant Staphylococcus aureus ATCC43300 assessed as swelling at 0.5 times of MIC incubated for 4 hrs by optical microscopic analysis. Type of series: functional, organism-based.
Series [15] has as its target T1, Cell division protein FtsZ (Staphylococcus aureus). Briefly: Induction of recombinant FtsZ polymerization in methicillin-resistant Staphylococcus aureus ATCC43300 assessed as bundling of FtsZ protofilaments at 1 to 4 microg/ml measured within 5 mins by light scattering assay. The conditions noted are these: filed as activator, dose 1-4 µg/ml.
Series [16] relates to Staphylococcus aureus. As to the kind of experiment: Antibacterial activity against methicillin-resistant Staphylococcus aureus ATCC43300 assessed as reduction in bacterial count at 1 times of MIC incubated for 24 hrs by time kill kinetics assay. Type of series: functional, organism-based.
Series [17] has as its target T1, Cell division protein FtsZ (Staphylococcus aureus). Briefly: Induction of FtsZ polymerization in methicillin-resistant Staphylococcus aureus ATCC43300 assessed as increase in size of assembly at 4 microg/ml preincubated for 10 mins followed by GTP addition and measured after 15 mins by transmission electron microscopic analysis. The conditions noted are these: filed as activator, dose 4.0 µg/ml, time 25.0 min.

Series [18] concerns Staphylococcus aureus. As to the kind of experiment: Antibacterial activity against methicillin-resistant Staphylococcus aureus ATCC43300 assessed as reduction in bacterial count at 4 times of MIC incubated for 24 hrs by time kill kinetics assay. Format: functional, organism-based.
Series [19] addresses T2, Cell division protein FtsZ (Escherichia coli K-12). Briefly: Induction of recombinant FtsZ polymerization in penicillin-susceptible Escherichia coli ATCC25922 assessed as bundling of FtsZ protofilaments at 1 to 4 microg/ml incubated for 10 mins by light scattering assay. The note with it: filed as activator, dose 1-4 µg/ml.
A short description of series [20]: Selectivity ratio of MBC for bactericidal activity against penicillin-susceptible Escherichia coli ATCC25922 to MIC for antibacterial activity against penicillin-susceptible Escherichia coli ATCC25922. Format: functional.
Series [21] has as its system Escherichia coli. Briefly: Induction of morphological changes in penicillin-susceptible Escherichia coli ATCC25922 assessed as cell elongation at 0.5 times of MIC incubated for 4 hrs by optical microscopic analysis. Format: functional, organism-based.

Calls of active or inactive are those of the source. The calls are words filed in the database; no cut-off is given here.

Take `O=C1c2ccccc2-[n+]2ccc3c([nH]c4ccc(-c5ccccc5C(F)(F)F)cc43)c21.[Cl-]`: the values for the Activity in the series on Bacillus subtilis [1] and in the series with Erythrocyte were above 50 um and “Non-Toxic”, respectively. For the same compound, the outcome (in the series on Cell membrane [2]; in the series on Staphylococcus aureus [3]; in series [9]; in the series on Cell membrane [10]; in [11]; in series [12]) was Active. In addition, the result (in the series on Cell membrane [13]; in the series with Staphylococcus aureus [14]; in series [15]; in the series with Staphylococcus aureus [16]; in series [17]; in the series on Staphylococcus aureus [18]) was Active. Moreover, the outcome (in [19]; in the series with Escherichia coli [21]) was Active. Besides, the fold change (FC) in [4] turned out to be 2. Further, the Selectivity ratio came to 1 in the series with Staphylococcus aureus [5] and 4 in [20]. The same compound came in with an MBC in the series on Staphylococcus aureus [6] of 1.56 µg/mL. Besides, the MIC with Escherichia coli [7] is 12.5 µg/mL; in the series on Streptococcus pneumoniae, 0.195 µg/mL; in the series on Bacillus subtilis [8], 0.024 µg/mL; with Pseudomonas aeruginosa, above 200 µg/mL.

Regarding `O=C1c2ccccc2-[n+]2ccc3c([nH]c4ccc(-c5ccccc5Cl)cc43)c21.[Cl-]`, the Activity in the series with Bacillus subtilis [1] was above 50 um; with Erythrocyte, “Non-Toxic”. In addition, the result (in the series with Cell membrane [2]; in the series with Staphylococcus aureus [3]; in series [9]; in the series with Cell membrane [10]; in series [11]; in series [12]) was Active. The result (in the series with Cell membrane [13]; with Staphylococcus aureus [14]; in [15]; in the series with Staphylococcus aureus [16]; in [17]; with Staphylococcus aureus [18]) was Active. Also, the outcome (in [19]; with Escherichia coli [21]) was Active. Moreover, in [4], the fold change (FC) amounted to 2. Also, the values for the Selectivity ratio (in the series with Staphylococcus aureus [5]; in series [20]) were 1 and 4, respectively. Also, in the series on Staphylococcus aureus [6], the MBC is 1.56 µg/mL. Further, the MIC in the series with Escherichia coli [7] is 12.5 µg/mL; in the series with Streptococcus pneumoniae, 0.195 µg/mL; in the series on Bacillus subtilis [8] it was 0.049 µg/mL; in the series on Pseudomonas aeruginosa, above 200 µg/mL.

Consider `O=C1c2ccccc2-[n+]2ccc3c([nH]c4ccc(-c5ccccc5F)cc43)c21.[Cl-]`, for which the Activity in the series with Bacillus subtilis [1] was above 50 um; in the series with Erythrocyte, “Non-Toxic”. The outcome (in the series with Cell membrane [2]; in the series with Staphylococcus aureus [3]; in series [9]; with Cell membrane [10]; in series [11]; in series [12]) was Active. For the same compound, the outcome (in the series on Cell membrane [13]; with Staphylococcus aureus [14]; in series [15]; in the series on Staphylococcus aureus [16]; in [17]; in the series with Staphylococcus aureus [18]) was Active. In addition, the result (in series [19]; in the series on Escherichia coli [21]) was Active. Also, the fold change (FC) in [4] worked out at 2. Besides, the Selectivity ratio (in the series with Staphylococcus aureus [5]; in series [20]) was 1 in each case. Further, in the series with Staphylococcus aureus [6], the MBC came to 0.195 µg/mL. The MIC with Escherichia coli [7] is 6.25 µg/mL; in the series on Streptococcus pneumoniae, 0.195 µg/mL; with Bacillus subtilis [8], 0.024 µg/mL; with Pseudomonas aeruginosa, above 200 µg/mL.
